Results from patent US8168659B2, “1, 5-diphenyl-3-benzylamino-1, 5-dihydropyrrolidin-2-one as CB1 receptor modulators” (Eli Lilly and Company, priority 2006, dated 2012).
Where a name gives a salt, the structure may show the parent alone. Read-outs that look alike come from different tables or passages of the source.

How the values were obtained:
Rat CB1 = biological target: T1, Rat CB1 (Rattus norvegicus, UniProt P20272); experiment: Antibody-capture SPA GTP-γ-35S binding, antagonist/inverse agonist, CHO cell membranes; format: biochemical
T1 construct: purchased Applied Cell Sciences, Gaithersburg, Md; PerkinElmer Life Sciences, Boston, Mass; host or cells: CHO cells (recombinant expression), membranes
T1 sequence (P20272 whole entry): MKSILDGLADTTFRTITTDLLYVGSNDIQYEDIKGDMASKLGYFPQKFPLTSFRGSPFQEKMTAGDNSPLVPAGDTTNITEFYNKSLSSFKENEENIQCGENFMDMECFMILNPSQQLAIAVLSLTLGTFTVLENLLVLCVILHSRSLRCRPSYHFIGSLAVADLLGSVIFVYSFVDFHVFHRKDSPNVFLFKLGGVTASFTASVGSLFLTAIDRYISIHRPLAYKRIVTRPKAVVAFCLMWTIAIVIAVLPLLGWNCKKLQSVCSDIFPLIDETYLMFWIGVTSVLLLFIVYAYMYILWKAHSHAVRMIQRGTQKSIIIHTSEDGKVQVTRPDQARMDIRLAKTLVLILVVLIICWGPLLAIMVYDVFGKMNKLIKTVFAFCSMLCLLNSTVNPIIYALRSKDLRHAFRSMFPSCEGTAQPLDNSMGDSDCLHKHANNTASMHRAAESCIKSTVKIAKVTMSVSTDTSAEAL
Experimental: (§1) Antibody-Capture SPA GTP-γ-^35S Binding
(§2) Test exemplified compounds. Measure GTP-γ^35S binding in a 96 well format using a modified antibody capture technique previously described (DeLapp et al. 1999). Briefly incubate, CHO or Sf9 cell membranes expressing CB1 or CB2, respectively (Applied Cell Sciences, Gaithersburg, Md.; PerkinElmer Life Sciences, Boston, Mass.); prepare as previously described (DeLapp et al., 1999), exemplified compounds and 500 μM GTP-γ-^35S (PerkinElmer Life Sciences, Boston, Mass.) for 30 minutes (incubate all at room temperature) in GTP-binding assay buffer (20 mM Hepes, 100 mM NaCl, 5 mM MgCl2, pH 7.4). Perform antagonist dose responses in the presence of a saturating dose of full agonist (methanandamide). Add a mixture containing 0.27% Nonidet P40 detergent (Roche, Indianapolis, Ind.), anti-Gi antibody (final dilution of 1:300; Covance, Princeton, N.J.), and 1.25 mg anti-rabbit antibody scintillation proximity assay beads (GE Healthcare, Piscataway, N.J.) and seal the plates and incubate for an additional 3 hours. Centrifuge the plates at 700×g for 10 minutes using a Beckman GS-6R centrifuge and count for 1 minute per well using a Wallac MicroBeta TriLux scintillation counter (PerkinElmer, Boston, Mass.).
(§3) To analyze data, first subtract background from all wells. Determine percent agonist efficacy by normalizing agonist/inverse agonist dose response data to a full agonist (methanandamide) response. Calculating antagonist percent inhibition data by normalizing to results generated with a saturating concentration of methanandamide. Analyze the data using a 4-parameter logistic reduced fit with Activity Base and XLFit3 (IDBS, Emeryville, Calif.). Determine Kb values using a modification of the Cheng-Prusoff relationship: Kb=IC50/(1+[agonist]/EC50) where IC50 is determined from a four parameter fit of displacement curves, [agonist]=EC50 of full agonist, and EC50 is determined from a four parameter fit of a full agonist concentration response curve (Cheng and Prusoff 1973). Calculate mean Kb values as a mean of at least three independent determinations±standard error of the mean (SEM).

hCB1 [1] = biological target: T2, hCB1 (Homo sapiens, UniProt P21554); experiment: as above; format: biochemical
T2 sequence (P21554 whole entry): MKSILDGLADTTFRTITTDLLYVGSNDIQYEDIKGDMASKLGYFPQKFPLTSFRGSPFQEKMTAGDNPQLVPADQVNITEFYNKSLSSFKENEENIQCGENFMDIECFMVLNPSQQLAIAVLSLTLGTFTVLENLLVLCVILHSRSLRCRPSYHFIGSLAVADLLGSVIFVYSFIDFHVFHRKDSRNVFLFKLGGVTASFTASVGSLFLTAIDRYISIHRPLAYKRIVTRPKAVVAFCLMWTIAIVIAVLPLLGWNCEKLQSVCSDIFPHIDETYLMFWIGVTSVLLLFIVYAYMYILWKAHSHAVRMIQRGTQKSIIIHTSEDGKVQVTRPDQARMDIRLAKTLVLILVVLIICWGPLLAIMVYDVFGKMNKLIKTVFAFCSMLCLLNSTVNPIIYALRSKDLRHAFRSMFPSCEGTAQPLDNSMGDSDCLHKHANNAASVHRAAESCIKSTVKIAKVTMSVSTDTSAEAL
Experimental: as §1, §2, §3

Human CB2 [2] = biological target: T3, Human CB2 (Homo sapiens, UniProt P34972); experiment: Antibody-capture SPA GTP-γ-35S binding, antagonist/inverse agonist, Sf9 cell membranes; format: biochemical
T3 construct: purchased Applied Cell Sciences, Gaithersburg, Md; PerkinElmer Life Sciences, Boston, Mass; host or cells: Sf9 insect cells (recombinant expression), membranes
T3 sequence (P34972 whole entry): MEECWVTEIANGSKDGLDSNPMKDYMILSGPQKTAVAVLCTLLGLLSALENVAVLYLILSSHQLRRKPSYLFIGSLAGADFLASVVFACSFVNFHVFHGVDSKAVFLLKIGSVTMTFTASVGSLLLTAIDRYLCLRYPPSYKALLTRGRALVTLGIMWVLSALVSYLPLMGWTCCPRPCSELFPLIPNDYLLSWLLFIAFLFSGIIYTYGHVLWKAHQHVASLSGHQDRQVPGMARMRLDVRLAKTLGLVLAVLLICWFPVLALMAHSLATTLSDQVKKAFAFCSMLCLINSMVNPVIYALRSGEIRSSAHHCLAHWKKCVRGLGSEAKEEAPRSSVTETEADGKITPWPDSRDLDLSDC
Experimental: as §1, §2, §3

Human CB2 [3] = biological target: T3, Human CB2; experiment: Agonist GTP-binding, Sf9 membranes; format: biochemical
Experimental: as §1
Test exemplified compounds. Measure GTP-γ^35S binding in a 96 well format using a modified antibody capture technique previously described (DeLapp et al. 1999). Briefly incubate, CHO or Sf9 cell membranes expressing CB1 or CB2, respectively (Applied Cell Sciences, Gaithersburg, Md.; PerkinElmer Life Sciences, Boston, Mass.); prepare as previously described (DeLapp et al., 1999), exemplified compounds and […] GTP-γ-^35S (PerkinElmer Life Sciences, Boston, Mass.) for 30 minutes (incubate all at room temperature) in GTP-binding assay buffer (20 mM Hepes, 100 mM NaCl, 5 mM MgCl2, pH 7.4). Perform antagonist dose responses in the presence of a saturating dose of full agonist (methanandamide). […]
To analyze data, first subtract background from all wells. […] Determine Kb values using a modification of the Cheng-Prusoff relationship: Kb=IC50/(1+[agonist]/EC50) where IC50 is determined from a four parameter fit of displacement curves, [agonist]=EC50 of full agonist, and EC50 is determined from a four parameter fit of a full agonist concentration response curve (Cheng and Prusoff 1973). […]

Bioavailability rat = format: in vivo
Text: (§4) Methods for accessing bioavailabilty are well appreciated in the art. One such reference is Medicinal Research Reviews Vol 21 No. 5 382-396 (2001).

Bioavailability dog = format: in vivo
Text: as §4

NIH-Swiss mice = experiment: Forced swim test (FST); format: in vivo; conditions: minimum effective dose, decrease in immobility time
Experimental: Receive NIH male Swiss mice (Harlan Sprague-Dawley, weigh 20-25 g) 7-10 days prior to testing. House 12 mice/cage. Test animals that weigh 25-30 g. On the day of test, bring animals to the testing room at least 1 hr prior to dosing, when doing starts, 6-8 min. intervals between each dosing with mouse receiving either vehicle or exemplified compounds by p.o., and then put it into a clean cage afterwards (4 mice/cage). Depending on pretreatment time, start the test accordingly.
Mice FST: Place NIH-Swiss mice in clear plastic cylinders (diameter: 10 cm; height: 25 cm) filled to 6 cm with 22-25° C. water for six min. Record the duration of immobility during the last 4 min. of the six-minute trial. A mouse is regarded as immobile when floating motionless or making only those movements necessary to keep its head above the water.
Copy the data-immobility (second) into JMP data sheet, and analyze by ANOVA-Dunnett's test. Record the minimum effective dose (MED) as the lowest dose of compound at which statistically significant decrease in immobility time is observed versus a vehicle control.

hCB1 [4] = biological target: T2, hCB1; experiment: Agonist GTP-binding, Sf9 membranes; format: biochemical; set-up: purchased Applied Cell Sciences, Gaithersburg, Md; PerkinElmer Life Sciences, Boston, Mass; host or cells: Sf9 insect cells (recombinant expression), membranes
Experimental: as §1
as §2, with “Briefly incubate, CHO or Sf9 cell membranes expressing CB1 or CB2, respectively (Applied Cell Sciences, Gaithersburg, Md.; PerkinElmer Life Sciences, Boston, Mass.); prepare as previously described (DeLapp et al., 1999), exemplified compounds and 500 μM GTP-γ-^35S (PerkinElmer Life Sciences, Boston, Mass.) for 30 minutes (incubate all at room temperature) in GTP-binding assay buffer (20 mM Hepes, 100 mM NaCl, 5 mM MgCl2, pH 7.4).” left out
as §3

hCB1 [5] = biological target: T2, hCB1; experiment: hCB1 SPA GTPγ35S Sf9 membranes, antagonist; format: biochemical; set-up: purchased Applied Cell Sciences, Gaithersburg, Md; PerkinElmer Life Sciences, Boston, Mass; host or cells: Sf9 insect cells (recombinant expression), membranes; conditions: hCB1 SPA GTPγ35S Sf9 Mem 22.7 ug protein/well Antagonist; read-out: Inverse Agonist Potency CB1 (Kb)
Experimental: as §1
as §2, with “Briefly incubate, CHO or Sf9 cell membranes expressing CB1 or CB2, respectively (Applied Cell Sciences, Gaithersburg, Md.; PerkinElmer Life Sciences, Boston, Mass.); prepare as previously described (DeLapp et al., 1999), exemplified compounds and 500 μM GTP-γ-^35S (PerkinElmer Life Sciences, Boston, Mass.) for 30 minutes (incubate all at room temperature) in GTP-binding assay buffer (20 mM Hepes, 100 mM NaCl, 5 mM MgCl2, pH 7.4).” left out
as §3

[6] = Antibody-capture SPA GTP-γ-35S binding, human CB2, read-out: Inverse Agonist Potency CB2 (Kb)

Bioavail. Rat (Bioavailability rat) [%] | Bioavail. Dog (Bioavailability dog) [%] | Kb (hCB1 [5]) [nM] | Kb (Human CB2 [2]; [6]) [nM] | Structure (SMILES) | further results
36 | 40 | 2.6 |  | CC(C)(N[C@@H]1C[C@H](c2ccccc2)N(c2ccc(OC(F)(F)F)cc2)C1=O)c1ccc(C(F)(F)F)nc1.Cc1ccc(S(=O)(=O)O)cc1 [Example 49, (3R,5R)-3-[1-Methyl-1-(6-trifluoromethyl-pyridin-3-yl)-ethylamino]-5-phenyl-1-(4-trifluoromethoxy-phenyl)-pyrrolidin-2-one tosylate] | Kb (Rat CB1; Rat CB1 (CHO cells), GTP binding, mean ± SEM, read-out: Inverse Agonist Potency [Kb (nM)]): 0.264 ± 0.02 nM; CB1 antagonism/inverse agonism, in words (Rat CB1; rat CB1 receptors): potent; Kb (hCB1 [1]; Human CB1 (CHO cells), GTP binding, mean ± SEM, read-out: Inverse Agonist Potency [Kb (nM)]): 0.226 ± 0.01 nM; CB1 antagonism/inverse agonism, in words (hCB1 [1]; human CB1 receptors): potent; Kb (Human CB2 [2]; Human CB2 (Sf9 cells), GTP binding, mean ± SEM, read-out: Inverse Agonist Potency [Kb (nM)]): 587 ± 191 nM; CB2 antagonism, in words (Human CB2 [2]; human CB2 receptors): low antagonism; Agonist Efficacy % (Human CB2 [3]; normalized to full agonist methanandamide): 0%; EC50 (Human CB2 [3]; read-out: Agonist Potency EC50): > 10000 nM; Forced Swim Test (MED, mg/kg, po) (NIH-Swiss mice): 3 mg/kg; Agonist Efficacy % (hCB1 [4]; Human CB1, Sf9 membranes, normalized to full agonist methanandamide): −38.3 ± 1.0%; EC50 (hCB1 [4]; Human CB1, Sf9 membranes, read-out: Agonist Potency EC50): 0.81 ± 0.19 nM; agonist efficacy at the human CB1 receptor (inverse agonism), in words (hCB1 [4]; human CB1, basal constitutive activity): less than zero
7 | 36 | 0.91 | 390 | Cc1cccc([C@H]2C[C@@H](NC(C)(C)c3ccc(C(F)(F)F)nc3)C(=O)N2c2ccc(OC(F)(F)F)cc2)c1 [Example 1, (3R,5R)-3-[1-Methyl-1-(6-trifluoromethyl-pyridin-3-yl)-ethylamino]-5-(m-tolyl)-1-(4-trifluoromethoxy-phenyl)-pyrrolidin-2-one tosylate] | 
 |  | 2.38 | > 4000 | CC(F)(F)c1cccc([C@H]2C[C@@H](NC(C)(C)c3ccc(C(F)(F)F)nc3)C(=O)N2c2ccc(OC(F)(F)F)cc2)c1 [Example 32B, (3R,5R)-3-[1-Methyl-1-(6-trifluoromethyl-pyridin-3-yl)-ethyl-amino]-5-[3-(1,1-difluoro-ethyl)-phenyl]-1-(4-trifluoromethoxy-phenyl)-pyrrolidin-2-one] | 
 |  | 107 | > 7230 | CC(C)(N[C@H]1C[C@@H](c2ccccc2)N(c2ccc(OC(F)(F)F)cc2)C1=O)c1ccc(C(F)(F)F)nc1 [Example 4, (3S,5S)-3-[1-Methyl-1-(6-trifluoromethyl-pyridin-3-yl)-ethylamino]-5-phenyl-1-(4-trifluoromethoxy-phenyl)-pyrrolidin-2-one tosylate] | 
 |  | 72.7 | 4030 | CC(C)(N[C@H]1C[C@H](c2ccccc2)N(c2ccc(OC(F)(F)F)cc2)C1=O)c1ccc(C(F)(F)F)nc1 [Example 44, (3S,5R)-3-[1-Methyl-1-(6-trifluoromethyl-pyridin-3-yl)-ethylamino]-5-phenyl-1-(4-trifluoromethoxy-phenyl)-pyrrolidin-2-one] | 
77 | 38 | 0.71 | > 6900 | CC(C)(N[C@@H]1C[C@H](c2cccc(OC(F)(F)C(F)F)c2)N(c2ccc(C(F)(F)F)cc2)C1=O)c1ccc(C(F)(F)F)nc1 [Example 40, (3R,5R)-3-[1-Methyl-1-(6-trifluoromethyl-pyridin-3-yl)-ethylamino]-5-[3-(1,1,2,2-tetrafluoro-ethoxy)-phenyl]-1-(4-trifluoromethyl-phenyl)-pyrrolidin-2-one] | 
36 | 47 | 0.91 | > 14200 | CC(C)(N[C@@H]1C[C@H](c2cccc(OC(F)(F)C(F)F)c2)N(c2ccc(Cl)cc2)C1=O)c1ccc(C(F)(F)F)nc1 [Example 41, (3R,5R)-3-[1-Methyl-1-(6-trifluoromethyl-pyridin-3-yl)-ethylamino]-5-[3-(1,1,2,2-tetrafluoro-ethoxy)-phenyl]-1-(4-chloro-phenyl)-pyrrolidin-2-one] | 
